Reference: patent publication US11130741B2 (Bioimics AB, priority 2016, dated 2021)
Converted amounts (≈) assume the structure as drawn. Read-outs that look alike come from different tables or passages of the source.

Columns and labels:
[1] = test system: Escherichia coli (ATCC25922); assay: MIC, broth microdilution (CLSI), Escherichia coli ATCC25922
[2] = test system: Staphylococcus aureus subsp. aureus (ATCC29213); assay: MIC, broth microdilution (CLSI), Staphylococcus aureus subsp. aureus ATCC29213; format: cell-based; settings: ATCC29213, Table 15, read-out: S. aureus ("wound") (MIC)
[3] = ATCC25922, read-out: E. coli MIC, Table 15, NI = No inhibition

Cl.Cl.NCCN1CCC(Nc2cc(C(F)(F)F)cc3c2Nc2ccc(N4CCC5(CCCC5)C4)cc2S3)CC1 [compound 322, N-(1-(2-aminoethyl)piperidin-4-yl)-7-(2-azaspiro [4.4]nonan-2-yl)-3-(trifluoromethyl)-10H-phenothiazin-1-amine hydrochloride] showed an MIC [1, 3] of 4 µg/mL and an MIC [2] of 1 µg/mL.

Work on Cl.NCCN1CCC(Nc2cc(C(F)(F)F)cc3c2Nc2ccc(N4CC5CCC4C5)cc2S3)CC1 (stereo not drawn) [compound 327, N-(1-(2-aminoethyl)piperidin-4-yl)-7-(2-azabicyclo [2.2.1]heptan-2-yl)-3-(trifluoromethyl)-10H-phenothiazin-1-amine hydrochloride] yielded an MIC [1, 3] of 4 µg/mL and an MIC [2] of 1 µg/mL.

Cl.NCCNCCCNc1cc(C(F)(F)F)cc2c1Nc1ccc(N3CC4CCC3C4)cc1S2 (stereo not drawn) [compound 350, N1-(7-(2-azabicyclo[2.2.1]heptan-2-yl)-3-(trifluoromethyl)-10H-phenothiazin-1-yl)-N3-(2-aminoethyl) propane-1,3-diamine hydrochloride] was tested, and the MIC [1, 3] was 8 µg/mL and the MIC [2] was 4 µg/mL.

COC1CCN(c2ccc3c(c2)Sc2cc(C(F)(F)F)cc(NC4CCN(CCN)CC4)c2N3)C1.Cl.Cl (stereo not drawn) [compound 321, N-(1-(2-aminoethyl)piperidin-4-yl)-7-(3-methoxy-pyrrolidin-1-yl)-3-(trifluoromethyl)-10H-phenothiazin-1-amine hydrochloride] gave an MIC [1, 3] of 32 µg/mL and an MIC [2] of 8 µg/mL.

Cl.Cl.NCCN(CCN)CCN1CCC(Nc2cc(C(F)(F)F)cc3c2Nc2ccc(N4CCCC4)cc2S3)CC1 [compound 335, N1-(2-aminoethyl)-N1-(2-(4-((7-(pyrrolidin-1-yl)-3-(trifluoromethyl)-10H-phenothiazin-1-yl)amino)piperidin-1-yl)ethyl)ethane-1,2-diamine hydrochloride] gave an MIC [1, 3] of 64 µg/mL and an MIC [2] of 4 µg/mL.

NCCCN1c2ccncc2Sc2cc(-c3cc4ccccc4[nH]3)ccc21 [compound 267, 3-(8-(1H-indol-2-yl)-5H-benzo[b]pyrido[4,3-e] [1,4]thiazin-5-yl)propan-1-amine trifluoro acetic acid] was tested, and the MIC ([1]; ATCC25922, read-out: E. coli MIC) was 16 µg/mL (≈ 43 µM) and the MIC [2] was 2 µg/mL (≈ 5.37 µM).

Cl.NCCN1CCC(Nc2cc(C(F)(F)F)cc3c2Nc2ccc(N4CCC4)cc2S3)CC1 [compound 296, N-(1-(2-aminoethyl)piperidin-4-yl)-7-(azetidin-1-yl)-3-(trifluoromethyl)-10H-phenothiazin-1-amine hydrochloride] gave an MIC [1, 3] of 8 µg/mL and an MIC [2] of 4 µg/mL.

NC1CCCC(C(=O)Nc2cc(C(F)(F)F)cc3c2Nc2ncccc2S3)C1 (stereo not drawn) [compound 263, 3-amino-N-(7-(trifluoromethyl)-10H-benzo[b]pyrido[2,3-e] [1,4]thiazin-9-yl)cyclohexane-1-carboxamide] gave an MIC [1, 3] of 64 µg/mL (≈ 157 µM) and an MIC [2] of 64 µg/mL (≈ 157 µM).

CC1CCCN(c2ccc3c(c2)Sc2cc(C(F)(F)F)cc(NC(=O)CCNCCN)c2N3)C1.Cl.Cl (stereo not drawn) [compound 308, 3-((2-aminoethyl)amino)-N-(7-(3-methyl-piperidin-1-yl)-3-(trifluoromethyl)-10H-phenothiazin-1-yl)propanamide hydrochloride] gave an MIC [1, 3] of 64 µg/mL and an MIC [2] of 16 µg/mL.

With Cl.FC(F)(F)c1cc(NC2CCN(CCN3CCNCC3)CC2)c2c(c1)Sc1cc(Br)ccc1N2 [compound 319, 7-bromo-N-(1-(2-(piperazin-1-yl)ethyl)piperidin-4-yl)-3-(trifluoromethyl)-10H-phenothiazin-1-amine hydrochloride] the MIC [1, 3] was 8 µg/mL and the MIC [2] was 8 µg/mL.

NC1CCCC(C(=O)Nc2cc(C(F)(F)F)cc3c2Nc2ccncc2S3)C1 (stereo not drawn) [compound 257, 3-amino-N-(8-(trifluoromethyl)-5H-benzo[e]pyrido[3,4-b][1,4]thiazin-6-yl)cyclohexanecarboxamide] showed an MIC [1, 3] of 128 µg/mL (≈ 313 µM) and an MIC [2] of 64 µg/mL (≈ 157 µM).

Work on CC(C)C1CCCN(c2ccc3c(c2)Sc2cc(C(F)(F)F)cc(NC4CCN(CCN)CC4)c2N3)C1.Cl.Cl.Cl (stereo not drawn) [compound 320, N-(1-(2-aminoethyl)piperidin-4-yl)-7-(3-isopropyl-piperidin-1-yl)-3-(trifluoromethyl)-10H-phenothiazin-1-amine hydrochloride] yielded an MIC [1, 3] of 32 µg/mL and an MIC [2] of 4 µg/mL.
